Experimental data from patent US20220308043A1, “FLUORESCENT PROBES FOR IDENTIFICATION AND QUANTIFICATION OF HEPATIC TRANSPORTERS IN VITRO AND IN VIVO” (Université d'Orléans, priority 2021, published 2022).
“Also recorded” adds a separate entry of the source. Read-outs that look alike come from different tables or passages of the source. One block for each molecule: values may come before it.

Experiments:
[1] = test system: BC; conditions: cited from earlier work
[2] = test system: Efflux transporters; conditions: cited from earlier work
[3] = test system: bile canaliculi (BC) of HEPARG® cells; experiment: Bile canaliculi alterations evaluation for cholestasis-DILI prediction in HEPARG® cells; format: cell-based, human; conditions: for alteration of bile canaliculi (BC) revealed by fluorescent probe 15: HEPARG® cells, probe 15, versus control cells incubated only with 15, FIG. 9
Method: To investigate the application of fluorescent probes for predicting drug-induced cholestasis, cholestatic effects of six reference cholestatic drugs are evaluated by using two protocols.

[4] = test system: primary human hepatocyte (PHH)
Method: Four batches of primary human hepatocyte (PHH) are used for in vitro uptake assay:
Cryopreserved PHH are thawed in one-step Hepatocyte Thawing/Plating medium (MIL130) and then cells number and viability were evaluated with trypan blue exclusion test prior to cell treatment.
Influx study. Cryopreserved PHH are thawed in one-step Hepatocyte Thawing/Plating medium (MIL130) and then the cell number and viability are evaluated with trypan blue exclusion test prior to cell treatment. The cells were grown in MW96 at a density of 0.2*10^6/well.
Incubation for uptake evaluation. Incubation buffer: HBSS buffer containing 10 mM Herpes and 0.1% BSA, pH 7.4
The active uptake of each probe was tested according to the Test group 1 conditions. The results are presented in the table below as the percentage of active uptake compared to total uptake.

[5] = test system: OCT; experiment: Uptake evaluation, Test group 2: probe uptake in PHH with Mpp (OCT inhibitor); format: in vitro ADME, human; conditions: PHH pre-incubated 20 minutes with inhibitor, probe 5 μM, 30 minutes at 37° C.
[6] = target: T1, MRP2 (Homo sapiens, UniProt Q92887)
Method: (§2) Two HEPARG® cell lines are used as hepatic cell models for in vitro bile acid efflux assay.
(§3) Before the probe incubation assay, both differentiated HEPARG® wild-type and HEPARG® MRP2 KO cell cultures are washed once with Williams' Medium E (WME) with 0.1% BSA and then incubated with 1 to 5 μM of fluorescent probes (54, 55, 15) in WME with 0.1% BSA or 3 μM of CDFDA in WME at 37° C. for 30 min.
(§4) After incubation, the cell cultures are washed 4 times with WME medium containing 0.5% DMSO and 2% FBS.
(§5) The cell cultures are then observed with a fluorescence microscope and the cell images are taken and compared.
(§6) Both the differentiated wild-type HEPARG®™ and MPR2-KO HEPARG® cells are thawed in HEPARG® Thawing/Plating/General Purpose medium (MIL600/ADD670) and cultured in HEPARG® Maintenance/Metabolism Medium (MIL600/ADD620) (according to the user guide of Biopredic International). Fourteen to twenty days after cell seeding and maintenance, the fully differentiated and polarized cell cultures of both the wild-type and MRP2-KO HEPARG® cells are ready and used for the characterization of biological effects of fluorescent probes in term of specific Efflux Transporter-Mediated efflux of probes in the bile canaliculi of HEPARG® hepatocytes.

[7] = target: T2, BSEP (Homo sapiens, UniProt O95342); experiment: Efflux assay approach 1: canalicular accumulation in wild-type HEPARG® hepatocytes with or without taurocholate (BSEP competitive inhibitor); format: cell-based; parameters: both uptake transporters and efflux transporters, such as BSEP, MRP2, Pgp and BCRP; host or cells: differentiated wild-type HepaRG hepatocytes; conditions: for dependence of efflux into BC on BSEP: conclusion in words; for probe fluorescence / accumulation in BC with taurocholate: taurocholate as competitive inhibitor of BSEP, 3 hours at 37° C., FIG. 4 image B, FIG. 5
Method: (§1) After washing with the WME containing 0.1% BSA, the cell cultures are then incubated with WME medium containing 0.1% BSA, with or without the different inhibitors (taurocholate, Verapamil, KO143) at the concentration indicated at the table E2 for 3 hours at 37° C.
Target sequence in this assay (O95342 whole entry): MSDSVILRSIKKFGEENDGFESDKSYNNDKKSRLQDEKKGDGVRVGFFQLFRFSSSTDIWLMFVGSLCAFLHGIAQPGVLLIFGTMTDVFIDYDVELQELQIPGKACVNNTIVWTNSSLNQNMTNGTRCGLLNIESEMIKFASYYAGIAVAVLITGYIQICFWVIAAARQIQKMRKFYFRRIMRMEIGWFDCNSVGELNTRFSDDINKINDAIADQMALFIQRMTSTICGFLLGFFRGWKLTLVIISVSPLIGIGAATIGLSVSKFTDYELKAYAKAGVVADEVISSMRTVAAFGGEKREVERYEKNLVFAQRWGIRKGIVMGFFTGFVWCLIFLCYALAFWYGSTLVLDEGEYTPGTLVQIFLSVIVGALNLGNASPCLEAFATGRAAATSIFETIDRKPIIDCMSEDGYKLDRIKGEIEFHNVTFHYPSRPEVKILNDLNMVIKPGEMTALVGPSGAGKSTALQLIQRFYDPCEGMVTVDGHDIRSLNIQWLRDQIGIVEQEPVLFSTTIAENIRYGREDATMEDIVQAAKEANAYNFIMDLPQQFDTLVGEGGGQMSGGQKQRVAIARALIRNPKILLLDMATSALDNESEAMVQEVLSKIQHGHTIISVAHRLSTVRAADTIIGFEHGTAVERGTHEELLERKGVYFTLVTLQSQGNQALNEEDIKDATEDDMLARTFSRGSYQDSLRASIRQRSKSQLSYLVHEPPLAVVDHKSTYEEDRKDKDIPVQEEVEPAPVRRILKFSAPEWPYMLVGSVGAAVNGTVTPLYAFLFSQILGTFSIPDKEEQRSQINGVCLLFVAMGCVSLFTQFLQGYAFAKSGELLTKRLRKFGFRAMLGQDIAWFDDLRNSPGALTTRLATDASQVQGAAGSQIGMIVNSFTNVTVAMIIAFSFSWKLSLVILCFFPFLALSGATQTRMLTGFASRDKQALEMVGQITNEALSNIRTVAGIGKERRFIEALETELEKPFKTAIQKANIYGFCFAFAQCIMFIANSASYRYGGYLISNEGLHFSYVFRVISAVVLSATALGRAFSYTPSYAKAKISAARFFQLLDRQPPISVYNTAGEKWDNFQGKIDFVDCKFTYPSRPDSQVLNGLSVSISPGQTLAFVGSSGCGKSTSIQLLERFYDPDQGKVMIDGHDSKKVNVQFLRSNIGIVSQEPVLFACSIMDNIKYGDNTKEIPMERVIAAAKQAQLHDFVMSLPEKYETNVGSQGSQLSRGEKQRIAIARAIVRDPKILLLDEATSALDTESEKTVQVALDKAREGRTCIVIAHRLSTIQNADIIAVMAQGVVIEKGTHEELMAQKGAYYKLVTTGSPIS

[8] = test system: OATs
[9] = target: T3, NTCP (Homo sapiens, UniProt Q14973); experiment: Uptake evaluation, Test group 2: probe uptake in PHH with Myrcludex (NTCP inhibitor); format: in vitro ADME; conditions: PHH pre-incubated 20 minutes with inhibitor, probe 5 μM, 30 minutes at 37° C.
T3 construct: Cryopreserved PHH are thawed in one-step Hepatocyte Thawing/Plating medium; endogenous in cells; host or cells: cryopreserved primary human hepatocytes (PHH)
T3 sequence (Q14973 1-349): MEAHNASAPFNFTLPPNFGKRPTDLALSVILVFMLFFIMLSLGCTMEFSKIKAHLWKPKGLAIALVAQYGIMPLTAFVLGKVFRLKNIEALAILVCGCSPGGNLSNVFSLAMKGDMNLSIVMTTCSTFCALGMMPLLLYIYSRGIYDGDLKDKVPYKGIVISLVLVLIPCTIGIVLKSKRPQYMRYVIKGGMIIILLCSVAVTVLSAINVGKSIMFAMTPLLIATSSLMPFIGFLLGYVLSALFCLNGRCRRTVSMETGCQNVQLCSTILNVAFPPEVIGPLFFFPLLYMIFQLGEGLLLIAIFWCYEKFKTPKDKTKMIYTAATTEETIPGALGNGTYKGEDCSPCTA

[10] = test system: OATPs; conditions: PHH pre-incubated 20 minutes with inhibitor, probe 5 μM, 30 minutes at 37° C.
[11] = target: T4, BCRP (Homo sapiens, UniProt Q9UNQ0); experiment: Efflux assay approach 1: canalicular accumulation in wild-type HEPARG® hepatocytes with or without KO143 (BCRP inhibitor); format: cell-based; conditions: 3 hours at 37° C., FIG. 4 image C
T4 construct: both uptake transporters and efflux transporters, such as BSEP, MRP2, Pgp and BCRP; host or cells: differentiated wild-type HepaRG hepatocytes
T4 sequence (Q9UNQ0 1-655): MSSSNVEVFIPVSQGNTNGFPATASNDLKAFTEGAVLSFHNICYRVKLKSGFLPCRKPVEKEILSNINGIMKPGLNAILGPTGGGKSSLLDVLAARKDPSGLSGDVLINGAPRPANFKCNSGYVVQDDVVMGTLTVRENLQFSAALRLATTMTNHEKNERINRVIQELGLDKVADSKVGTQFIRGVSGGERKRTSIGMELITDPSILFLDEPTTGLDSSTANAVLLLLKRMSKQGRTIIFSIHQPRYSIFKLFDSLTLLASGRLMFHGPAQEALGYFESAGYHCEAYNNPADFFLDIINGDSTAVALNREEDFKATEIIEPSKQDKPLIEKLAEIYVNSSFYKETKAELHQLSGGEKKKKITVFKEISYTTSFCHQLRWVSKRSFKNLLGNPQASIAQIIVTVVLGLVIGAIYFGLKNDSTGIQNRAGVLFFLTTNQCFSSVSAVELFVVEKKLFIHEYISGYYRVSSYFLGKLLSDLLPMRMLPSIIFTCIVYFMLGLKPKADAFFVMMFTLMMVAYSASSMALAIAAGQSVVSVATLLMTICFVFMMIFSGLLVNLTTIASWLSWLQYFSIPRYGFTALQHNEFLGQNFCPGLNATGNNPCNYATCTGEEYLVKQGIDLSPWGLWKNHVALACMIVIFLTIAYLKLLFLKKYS
Method: as §1

[12] = target: T1, MRP2; experiment: Efflux assay approach 3: canalicular accumulation in HEPARG® MRP2 KO and wild-type cells; conditions: for dependence of canalicular efflux on ABC transporter MRP2: conclusion from MRP2 KO accumulation profile; for accumulation / fluorescence intensity in the BC of HEPARG® MRP2 KO cells: probes 1 to 5 μM or 3 μM CDFDA, 37° C., 30 min, FIG. 7
Method: as §2, §3, §4, §5, §6

[13] = target: T2, BSEP; experiment: Efflux assay approach 2: uptake in ABC transporter vesicles (Sf9) in the presence of ATP or AMP; format: in vitro ADME; parameters: purchased Genomembrane GM3010, GM3030 and GM3050 (reagent kits); host or cells: Sf9 cells; conditions: 10 minutes, FIG. 6
Method: Fluorescent probes were incubated with vesicles at 1 and 10 μM during 10 minutes, while the reference substrates were incubated at the test conditions indicated above. • Approach 3: specificity assessment with HEPARG® MRP2 KO
Transporter assay. Reagent kits for Vesicular Transport Assay from Genomembrane (GM3010, GM3030 and GM3050) were used to determine the specificity of ABC transporters versus tested probes.
The vesicles transfected with BSEP transporter were incubated with the 2 probes 54 and 55 in the presence of ATP or AMP in order to determine the interaction specificity between the probe and the transporter.
Target sequence in this assay (O95342 whole entry, species assumed): as the sequence (O95342 whole entry) above

[14] = target: T5, Pgp (Homo sapiens, UniProt P08183); experiment: Efflux assay approach 1: canalicular accumulation in wild-type HEPARG® hepatocytes with or without Verapamil (Pgp inhibitor); format: cell-based; conditions: 3 hours at 37° C., FIG. 4 image D
T5 construct: both uptake transporters and efflux transporters, such as BSEP, MRP2, Pgp and BCRP; host or cells: differentiated wild-type HepaRG hepatocytes
Method: as §1

[15] = test system: OATs; experiment: Uptake evaluation, Test group 2: probe uptake in PHH with Indomethacine/Diclofenac (OATs inhibitor); conditions: PHH pre-incubated 20 minutes with inhibitor, probe 5 μM, 30 minutes at 37° C.

T1 sequence (Q92887 whole entry): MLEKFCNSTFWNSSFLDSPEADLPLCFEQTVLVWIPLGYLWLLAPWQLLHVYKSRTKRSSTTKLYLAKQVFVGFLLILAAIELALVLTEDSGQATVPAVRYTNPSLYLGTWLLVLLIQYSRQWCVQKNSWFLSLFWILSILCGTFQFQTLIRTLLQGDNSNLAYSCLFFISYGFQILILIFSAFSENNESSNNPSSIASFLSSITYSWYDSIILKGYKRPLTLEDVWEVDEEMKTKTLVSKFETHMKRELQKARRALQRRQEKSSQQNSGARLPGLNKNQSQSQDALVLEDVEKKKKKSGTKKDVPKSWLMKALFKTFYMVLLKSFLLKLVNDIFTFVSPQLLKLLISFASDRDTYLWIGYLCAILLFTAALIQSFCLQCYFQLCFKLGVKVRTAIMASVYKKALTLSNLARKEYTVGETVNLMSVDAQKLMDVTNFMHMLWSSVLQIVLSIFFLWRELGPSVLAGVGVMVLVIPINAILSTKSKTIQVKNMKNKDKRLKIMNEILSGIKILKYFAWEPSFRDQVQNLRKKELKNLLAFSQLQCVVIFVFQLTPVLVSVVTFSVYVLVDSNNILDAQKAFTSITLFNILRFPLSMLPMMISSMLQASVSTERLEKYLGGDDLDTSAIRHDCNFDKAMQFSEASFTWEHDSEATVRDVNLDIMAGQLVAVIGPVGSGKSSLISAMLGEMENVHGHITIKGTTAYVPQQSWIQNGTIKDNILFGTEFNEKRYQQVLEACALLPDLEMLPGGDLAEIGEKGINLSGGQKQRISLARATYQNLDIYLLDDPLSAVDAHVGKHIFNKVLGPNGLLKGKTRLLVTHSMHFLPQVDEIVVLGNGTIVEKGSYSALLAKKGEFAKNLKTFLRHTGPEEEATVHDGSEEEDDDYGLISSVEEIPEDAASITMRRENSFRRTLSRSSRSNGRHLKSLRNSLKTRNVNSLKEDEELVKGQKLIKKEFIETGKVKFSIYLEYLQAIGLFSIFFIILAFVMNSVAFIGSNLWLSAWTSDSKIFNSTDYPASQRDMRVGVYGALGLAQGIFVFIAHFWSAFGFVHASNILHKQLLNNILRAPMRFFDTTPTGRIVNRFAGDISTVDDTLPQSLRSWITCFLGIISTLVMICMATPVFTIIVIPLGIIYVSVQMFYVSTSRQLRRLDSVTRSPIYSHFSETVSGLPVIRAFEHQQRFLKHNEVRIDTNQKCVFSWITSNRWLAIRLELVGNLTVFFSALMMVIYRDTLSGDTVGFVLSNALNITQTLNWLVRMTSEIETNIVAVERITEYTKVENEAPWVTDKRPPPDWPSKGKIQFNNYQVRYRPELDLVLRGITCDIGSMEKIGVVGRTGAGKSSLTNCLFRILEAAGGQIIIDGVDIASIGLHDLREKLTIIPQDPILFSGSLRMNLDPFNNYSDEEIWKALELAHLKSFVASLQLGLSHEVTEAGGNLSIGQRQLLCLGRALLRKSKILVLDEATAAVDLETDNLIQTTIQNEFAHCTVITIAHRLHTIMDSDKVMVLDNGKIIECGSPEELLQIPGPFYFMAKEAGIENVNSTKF
T5 sequence (P08183 whole entry): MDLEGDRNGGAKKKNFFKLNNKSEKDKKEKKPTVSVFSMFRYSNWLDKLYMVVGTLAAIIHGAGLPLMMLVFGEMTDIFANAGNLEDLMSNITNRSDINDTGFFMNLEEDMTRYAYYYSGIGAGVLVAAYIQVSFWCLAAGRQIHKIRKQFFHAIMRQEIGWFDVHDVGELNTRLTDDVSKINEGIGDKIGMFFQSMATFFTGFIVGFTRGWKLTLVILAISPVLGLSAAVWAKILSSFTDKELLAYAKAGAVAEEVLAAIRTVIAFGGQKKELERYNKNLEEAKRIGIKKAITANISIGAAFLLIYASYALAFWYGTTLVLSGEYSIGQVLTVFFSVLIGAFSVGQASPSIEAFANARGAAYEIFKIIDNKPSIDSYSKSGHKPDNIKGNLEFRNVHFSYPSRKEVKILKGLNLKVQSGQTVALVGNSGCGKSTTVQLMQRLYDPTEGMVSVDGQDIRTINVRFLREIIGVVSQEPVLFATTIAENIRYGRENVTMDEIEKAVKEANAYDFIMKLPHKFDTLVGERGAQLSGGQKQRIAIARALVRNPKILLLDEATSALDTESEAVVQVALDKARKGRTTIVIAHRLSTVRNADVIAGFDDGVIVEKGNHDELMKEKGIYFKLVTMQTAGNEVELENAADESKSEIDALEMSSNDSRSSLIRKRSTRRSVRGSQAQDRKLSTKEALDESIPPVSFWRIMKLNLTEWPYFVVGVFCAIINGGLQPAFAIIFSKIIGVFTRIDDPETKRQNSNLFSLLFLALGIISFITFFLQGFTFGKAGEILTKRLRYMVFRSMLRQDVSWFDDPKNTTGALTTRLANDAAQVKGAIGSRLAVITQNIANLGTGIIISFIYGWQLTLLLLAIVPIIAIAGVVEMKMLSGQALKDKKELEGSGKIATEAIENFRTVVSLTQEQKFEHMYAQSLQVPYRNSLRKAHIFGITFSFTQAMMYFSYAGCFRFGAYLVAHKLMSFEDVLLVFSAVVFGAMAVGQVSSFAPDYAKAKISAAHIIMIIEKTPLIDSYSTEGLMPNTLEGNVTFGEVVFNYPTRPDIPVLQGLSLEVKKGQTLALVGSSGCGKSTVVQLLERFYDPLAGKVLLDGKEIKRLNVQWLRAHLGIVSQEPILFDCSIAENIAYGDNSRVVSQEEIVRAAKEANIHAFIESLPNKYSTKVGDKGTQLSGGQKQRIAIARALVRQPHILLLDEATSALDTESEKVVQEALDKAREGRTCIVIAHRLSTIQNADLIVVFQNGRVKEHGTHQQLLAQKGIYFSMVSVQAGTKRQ

Molecule: CC(=O)Nc1ccc(O)cc1 [Acetaminophen]
Theoretical effect: Induced effect on BC [1]: None
Theoretical effect: Efflux transporters interaction [2]: None
Protocol 1 Effects on BC morphology and BA transporters CDFDA ([3]; drug 3 hours at 37° C., then probe CDFDA 3 μM 30 min, FIG. 8A): No effect

Molecule: COc1ccccc1Oc1c(NS(=O)(=O)c2ccc(C(C)(C)C)cc2)nc(-c2ncccn2)nc1OCCO [Bosentan]
Theoretical effect: Induced effect on BC [1]: dilation
Theoretical effect: Efflux transporters interaction [2]: MRP2/BSEP
alteration of bile canaliculi (BC) revealed by fluorescent probe 15 [3]: important dilation

Molecule: CN(C)CCCN1c2ccccc2Sc2ccc(Cl)cc21 [Chlorpromazine]
Theoretical effect: Induced effect on BC [1]: constriction
Theoretical effect: Efflux transporters interaction [2]: MRP2/BSEP
alteration of bile canaliculi (BC) revealed by fluorescent probe 15 ([3]; listed as CPZ): remarkable constriction of BC; also recorded: detectable constriction of BC

Molecule: COC(=O)[C@H](CCCCNc1ccc([N+](=O)[O-])c2nonc12)NC(=O)CC[C@@H](C)C1CCC2C3C(CC[C@@]21C)[C@@]1(C)CC[C@@H](O)CC1C[C@@H]3O (stereo partly drawn) [Compound 15, Methyl-N2-((4R)-4-((3R,7S,10S,13R)-3,7-dihydroxy-10,13-dimethylhexadecahydro-1H-cyclopenta[a]phenanthren-17-yl)pentanoyl)-N6-(7-nitrobenzo[c][1,2,5]oxadiazol-4-yl)-L-lysinate]
% Active uptake (Mean value) ([4]; human, 30 min, 5 μM, pH 7.4): 31%
% of inhibition Mpp (OCT inhibitor) [5]: 11%
dependence of canalicular efflux on ABC transporter MRP2 [6]: independent
dependence of efflux into BC on BSEP [7]: weakly dependent on BSEP
probe fluorescence / accumulation in BC with taurocholate [7]: partial inhibition profile
involvement of OATs in the uptake of the probe [8]: mainly dependent on OAT family
% of inhibition Myrcludex (NTCP inhibitor) [9]: 16%
% of inhibition Rifampicine (OATPs inhibitor) [10]: 34%

type of probe uptake (active transport or passive diffusion) [4]: mainly mediated by transporters
BC accumulation with inhibitor of BCRP (KO143) versus control cells [11]: no visible difference
dependence of canalicular efflux on ABC transporter MRP2 [12]: independent
accumulation / fluorescence intensity in the BC of HEPARG® MRP2 KO cells [12]: stronger fluorescence intensity
BC accumulation with inhibitor of Pgp (Verapamil) versus control cells [14]: no visible difference
Molecule: COC(=O)C(CCCCNC(=O)CCc1ccc2n1[B-](F)(F)[N+]1=C(C)C=C(C)C1=C2)NC(=O)CCC(C)C1CCC2C3C(O)CC4CC(O)CCC4(C)C3CCC12C [Compound 54, Methyl N6-(3-(5,5-difluoro-7,9-dimethyl-5H-dipyrrolo[1,2-c:2′,1′-f][1,3,2]diazaborinin-3-yl)propanoyl)-N2-((4R)-4-((3R,7S,10S,13R,17R)-3,7-dihydroxy-10,13-dimethylhexadecahydro-1H-cyclopenta[a]phenanthren-17-yl)pentanoyl)-L-lysinate]
dependence of efflux into BC on BSEP [7]: substrate of BSEP
probe fluorescence / accumulation in BC with taurocholate [7]: significant decrease
accumulation of probe fluorescence in BC of HEPARG® hepatocytes ([7]; without any inhibitor, FIG. 4 image A): significant accumulation
uptake in vesicles ATP/AMP ([13]; whatever probe concentrations (1 and 10 μM)): no difference

type of probe uptake (active transport or passive diffusion) [4]: mainly mediated by transporters
BC accumulation with inhibitor of BCRP (KO143) versus control cells [11]: independent
dependence of canalicular efflux on ABC transporter MRP2 [12]: independent
accumulation / fluorescence intensity in the BC of HEPARG® MRP2 KO cells [12]: stronger fluorescence intensity
BC accumulation with inhibitor of Pgp (Verapamil) versus control cells [14]: independent
Molecule: COC(=O)CNC(=O)C(CCCCNC(=O)CCc1ccc2n1[B-](F)(F)[N+]1=C(C)C=C(C)C1=C2)NC(=O)CCC(C)C1CCC2C3C(O)CC4CC(O)CCC4(C)C3CCC12C [Compound 55, Methyl-N6-(3-(5,5-difluoro-7,9-dimethyl-5H-dipyrrolo[1,2-c:2′,1′-f][1,3,2]diazaborinin-3-yl)propanoyl)-N2-((4R)-4-((3R,7S,10S,13R,17R)-3,7-dihydroxy-10,13-dimethylhexadecahydro-1H-cyclopenta[a]phenanthren-17-yl)pentanoyl)-L-lysylglycinate]
uptake inside the membrane vesicles in the presence of ATP compared to AMP ([13]; probe at 10 μM): significant uptake

Molecule: O=S(=O)(c1cccc2cnccc12)N1CCCNCC1 [Fasudil]
Theoretical effect: Efflux transporters interaction [2]: No

Molecule: Cc1c(C)c2c(c(C)c1O)CCC(C)(COc1ccc(CC3SC(=O)NC3=O)cc1)O2 (centres unmarked) [Troglitazone]
Theoretical effect: Induced effect on BC [1]: constriction

% of inhibition Myrcludex (NTCP inhibitor) [9]: 81%
Molecule: Tauro-nor-THCA-24-DBD [reference compound]
% of inhibition Mpp (OCT inhibitor) [5]: 26%
% of inhibition Indomethacine/Diclofenac (OATs inhibitor) [15]: 50%
% of inhibition Rifampicine (OATPs inhibitor) [10]: 24%
